Activity calls are given as the source filed them. No cut-off for these calls is given here.
Columns and labels:
[1] = (§1) Neurotoxicity in ip dosed Mus musculus albino (mouse) after 4 hr rotorod test; assay type: toxicity, organism-based; details: albino, in vivo
Mus musculus [2] = assay: (§2) Neurotoxicity in ip dosed Mus musculus albino (mouse) after 0.5 hr rotorod test; assay type: toxicity, organism-based; details: in vivo, 0.5 h
Mus musculus [3] = assay: Anticonvulsant activity in ip dosed Mus musculus albino (mouse) assessed as protection against maximal electroshock-induced seizures after 4 hr; assay type: functional; details: read-out: MED
Mus musculus [4] = assay: Anticonvulsant activity in ip dosed Mus musculus albino (mouse) assessed as protection against maximal electroshock-induced seizures after 0.5 hr; assay type: functional; details: read-out: MED
Mus musculus [5] = assay: Anticonvulsant activity in Mus musculus albino (mouse) assessed as protection against subcutaneous pentylenetetrazol-induced seizures at 300 mg/kg, ip after 0.5 hr; assay type: functional, organism-based; set-up: dose 300 mg/kg
Mus musculus [6] = assay: Anticonvulsant activity in ip dosed Mus musculus albino (mouse) assessed as protection against subcutaneous pentylenetetrazol-induced seizures after 4 hr; assay type: functional; details: read-out: MED
Mus musculus [7] = assay: Anticonvulsant activity in ip dosed Mus musculus albino (mouse) assessed as protection against subcutaneous pentylenetetrazol-induced seizures; assay type: functional
Mus musculus [8] = assay: Anticonvulsant activity in ip dosed Mus musculus albino (mouse) assessed as protection against maximal electroshock-induced seizures; assay type: functional
Mus musculus [9] = assay: as §1; assay type: toxicity, organism-based; details: in vivo, 4 h
Mus musculus [10] = assay: Anticonvulsant activity in Mus musculus albino (mouse) assessed as protection against subcutaneous pentylenetetrazol-induced seizures at 300 mg/kg, ip after 4 hr; assay type: functional, organism-based; set-up: dose 300 mg/kg
Mus musculus [11] = assay: Hepatoxicity in Mus musculus albino (mouse) assessed as effect on SGOT level in serum at 3 to 30 mg/kg, ip; assay type: toxicity, organism-based; set-up: dose 3-30 mg/kg, route intraperitoneal; details: in vivo
Mus musculus [12] = assay: Hepatoxicity in Mus musculus albino (mouse) assessed as effect on SGPT level in serum at 3 to 30 mg/kg, ip; assay type: toxicity, organism-based; set-up: dose 3-30 mg/kg, route intraperitoneal; details: in vivo
Mus musculus [13] = assay: Hepatoxicity in Mus musculus albino (mouse) assessed as effect on alkaline phosphatase level in serum at 3 to 30 mg/kg, ip; assay type: toxicity, organism-based; set-up: dose 3-30 mg/kg, route intraperitoneal; details: in vivo
Mus musculus [14] = species on record: Mus musculus; assay: Protective index, ratio of TD50 for Mus musculus albino (mouse) to ED50 for Mus musculus albino (mouse) by maximal electroshock-induced seizures test; assay type: functional
Mus musculus [15] = assay: Protective index, ratio of TD50 for Mus musculus albino (mouse) to ED50 for Mus musculus albino (mouse) by subcutaneous pentylenetetrazol-induced seizures test; assay type: functional
[16] = as §2; assay type: toxicity, organism-based; details: albino, in vivo
Mus musculus [17] = assay: Anticonvulsant activity in ip dosed Mus musculus albino (mouse) assessed as protection against subcutaneous pentylenetetrazol-induced seizures after 0.5 hr; assay type: functional; details: read-out: MED
Mus musculus [18] = assay: Anticonvulsant activity in Mus musculus albino (mouse) assessed as protection against maximal electroshock-induced seizures at 300 mg/kg, ip after 4 hr; assay type: functional, organism-based; set-up: dose 300 mg/kg
Mus musculus [19] = assay: Anticonvulsant activity in Mus musculus albino (mouse) assessed as protection against maximal electroshock-induced seizures at 300 mg/kg, ip after 0.5 hr; assay type: functional, organism-based; set-up: dose 300 mg/kg

Structure (SMILES) | MTD at 4 h [1] | MTC (Mus musculus [2]) | minimal effective dose (Mus musculus [3]) | minimal effective dose (Mus musculus [4]) | Activity (Mus musculus [5]) | minimal effective dose (Mus musculus [6]) | ED50 (Mus musculus [7]) | ED50 (Mus musculus [8]) | MTC (Mus musculus [9]) | Activity (Mus musculus [10]) | Activity (Mus musculus [11]) | Activity (Mus musculus [12]) | Activity (Mus musculus [13]) | Ratio TD50/ED50 (Mus musculus [14]) | Ratio TD50/ED50 (Mus musculus [15]) | MTD at 0.5 h [16] | TD50 at 0.5 h [16] | minimal effective dose (Mus musculus [17]) | Activity (Mus musculus [18]) | Activity (Mus musculus [19])
COc1ccccc1Nc1nnc(Nc2nc(-c3ccc([N+](=O)[O-])cc3)cs2)s1 | 300 mg/kg | 300 mg/kg | 300 mg/kg | 300 mg/kg | inactive | 300 mg/kg | – | – | – | – | – | – | – | – | – | – | – | – | – | –
CCC1(c2ccccc2)C(=O)NC(=O)NC1=O [PHENOBARBITAL] | – | 100 mg/kg | 30 mg/kg | 100 mg/kg | inactive | – | 13.2 mg/kg | 21.8 mg/kg | 300 mg/kg | inactive | – | – | – | – | – | – | – | – | – | –
Cc1ccc(Nc2nnc(Nc3nc(-c4ccc([N+](=O)[O-])cc4)cs3)s2)cc1 | 300 mg/kg | – | 100 mg/kg | 30 mg/kg | – | – | 232 mg/kg | 19.1 mg/kg | – | inactive | Toxic | Toxic | Toxic | 11.3 | 0.9 | 300 mg/kg | 216 mg/kg | 300 mg/kg | – | –
Cc1ccccc1Nc1nnc(Nc2nc(-c3ccccc3)cs2)s1 | – | – | – | 300 mg/kg | inactive | – | – | – | 300 mg/kg | inactive | – | – | – | – | – | 300 mg/kg | – | – | inactive | –
Cc1ccc(Nc2nnc(Nc3nc(-c4ccc(Br)cc4)cs3)s2)cc1 | – | 300 mg/kg | 100 mg/kg | 100 mg/kg | – | 300 mg/kg | – | – | 300 mg/kg | – | – | – | – | – | – | – | – | 300 mg/kg | – | –
CCC1(C)CC(=O)NC1=O (stereo unspecified) [ETHOSUXIMIDE] | 300 mg/kg | – | – | – | – | 300 mg/kg | > 100 mg/kg | 8.8 mg/kg | – | – | – | – | – | 8.1 | <0.2 | 300 mg/kg | 71.6 mg/kg | 100 mg/kg | inactive | inactive
COc1ccccc1Nc1nnc(Nc2nc(-c3ccccc3)cs2)s1 | 300 mg/kg | – | 300 mg/kg | 100 mg/kg | – | 300 mg/kg | – | – | – | – | – | – | – | – | – | 300 mg/kg | – | 100 mg/kg | – | –
Cc1ccc(Nc2nnc(Nc3nc(-c4ccccc4)cs3)s2)cc1 | 300 mg/kg | – | 100 mg/kg | 100 mg/kg | – | – | – | – | – | inactive | – | – | – | – | – | 300 mg/kg | – | 300 mg/kg | – | –
COc1ccccc1Nc1nnc(Nc2nc(-c3ccc(Cl)cc3)cs2)s1 | – | 300 mg/kg | 300 mg/kg | – | inactive | 100 mg/kg | – | – | 300 mg/kg | – | – | – | – | – | – | – | – | – | – | inactive
Cc1ccccc1Nc1nnc(Nc2nc(-c3ccc([N+](=O)[O-])cc3)cs2)s1 | – | 100 mg/kg | 100 mg/kg | 100 mg/kg | inactive | 300 mg/kg | – | – | 300 mg/kg | – | – | – | – | – | – | – | – | – | – | –
Cc1ccc(Nc2nnc(Nc3nc(-c4ccc(Cl)cc4)cs3)s2)cc1 | 300 mg/kg | – | 100 mg/kg | 300 mg/kg | inactive | 300 mg/kg | – | – | – | – | – | – | – | – | – | 300 mg/kg | – | – | – | –
Clc1ccc(-c2csc(Nc3nnc(Nc4ccccc4)s3)n2)cc1 | 300 mg/kg | – | 300 mg/kg | – | inactive | – | – | – | – | inactive | – | – | – | – | – | 300 mg/kg | – | – | – | inactive
COc1ccc(Nc2nnc(Nc3nc(-c4ccc(Cl)cc4)cs3)s2)cc1 | 300 mg/kg | – | 300 mg/kg | 100 mg/kg | – | 300 mg/kg | – | – | – | – | – | – | – | – | – | 300 mg/kg | – | 100 mg/kg | – | –
O=[N+]([O-])c1ccc(-c2csc(Nc3nnc(Nc4ccccc4)s3)n2)cc1 | 300 mg/kg | 100 mg/kg | – | 100 mg/kg | inactive | – | – | – | – | inactive | – | – | – | – | – | – | – | – | inactive | –
COc1ccccc1Nc1nnc(Nc2nc(-c3ccc(Br)cc3)cs2)s1 | – | 300 mg/kg | – | 300 mg/kg | inactive | 300 mg/kg | – | – | 100 mg/kg | – | – | – | – | – | – | – | – | – | inactive | –
Cc1ccccc1Nc1nnc(Nc2nc(-c3ccc(Cl)cc3)cs2)s1 | 300 mg/kg | – | 300 mg/kg | 300 mg/kg | inactive | – | – | – | – | inactive | – | – | – | – | – | 300 mg/kg | – | – | – | –
Cc1ccccc1Nc1nnc(Nc2nc(-c3ccc(Br)cc3)cs2)s1 | 300 mg/kg | 100 mg/kg | 300 mg/kg | 300 mg/kg | inactive | 300 mg/kg | – | – | – | – | – | – | – | – | – | – | – | – | – | –
Brc1ccc(-c2csc(Nc3nnc(Nc4ccccc4)s3)n2)cc1 | – | 300 mg/kg | – | 300 mg/kg | inactive | – | – | – | 300 mg/kg | inactive | – | – | – | – | – | – | – | – | inactive | –
O=C1NC(=O)C(c2ccccc2)(c2ccccc2)N1 [PHENYTOIN] | – | 100 mg/kg | 30 mg/kg | 30 mg/kg | inactive | – | > 300 mg/kg | – | 100 mg/kg | inactive | – | – | – | – | – | – | – | – | – | –
COc1ccc(Nc2nnc(Nc3nc(-c4ccc(Br)cc4)cs3)s2)cc1 | 300 mg/kg | – | 100 mg/kg | 30 mg/kg | – | – | 79.4 mg/kg | 27.6 mg/kg | – | inactive | Toxic | Toxic | Toxic | 25.8 | 8.9 | 300 mg/kg | 713 mg/kg | 100 mg/kg | – | –
c1ccc(Nc2nnc(Nc3nc(-c4ccccc4)cs3)s2)cc1 | – | – | – | 300 mg/kg | inactive | 100 mg/kg | – | – | 300 mg/kg | – | – | – | – | – | – | 300 mg/kg | – | – | inactive | –
COc1ccc(Nc2nnc(Nc3nc(-c4ccccc4)cs3)s2)cc1 | 300 mg/kg | 300 mg/kg | 100 mg/kg | 100 mg/kg | inactive | 300 mg/kg | – | – | – | – | – | – | – | – | – | – | – | – | – | –
COc1ccc(Nc2nnc(Nc3nc(-c4ccc([N+](=O)[O-])cc4)cs3)s2)cc1 | 300 mg/kg | – | 30 mg/kg | 30 mg/kg | inactive | 100 mg/kg | 433 mg/kg | 12.6 mg/kg | – | – | Toxic | Toxic | Toxic | 43.6 | 1.2 | 300 mg/kg | 550 mg/kg | – | – | –
CCCC(CCC)C(=O)O [VALPROIC ACID] | – | – | – | – | – | – | 149 mg/kg | – | – | – | – | – | – | – | – | – | – | – | – | –

— ChEMBL document CHEMBL3045294, “Synthesis, anticonvulsant and toxicity screening of thiazolylthiadiazole derivatives” (Med Chem Res, 2011)
